Experimental data taken from patent publication US20250018049A1, “COMPOUNDS FOR DEGRADING CYCLIN-DEPENDENT KINASE 2 VIA UBIQUITIN PROTEOSOME PATHWAY” (NIKANG THERAPEUTICS, INC., priority 2020, published 2025).

What was measured:
Format in all cases: cell-based
[1] = target: T1, CDK2 (Homo sapiens, UniProt P24941); assay: CDK2 HTRF assay (cellular endogenous CDK2 level); parameters: High-Throughput Measurement of Cellular Endogenous CDK2; endogenous in cells; host or cells: OVCAR3; settings: OVCAR-3; OVCAR3 cells, 24 hours, 0.3 to 10,000 nM; read-out: max degradation of CDK2
Procedure: Effects of compounds on cellular CDK2 level can be monitored by a high-throughput HTRF assay or traditional Western Blot assay.
To determine half maximal degradation concentration (DC50) values of compounds, cellular CDK2 level was measured in 96-well format using HTRF total CDK2 cellular kit (Cat #64CDK2TPEG) from Cisbio.
On Day 1, OVCAR3 cells were seeded into 96-well tissue-culture treated plates at 20,000 cells/well in 200 μL and incubated overnight at 37° C. in CO2 atmosphere. On Day 2 cells were treated with compounds at concentration ranging from 0.3 to 10,000 nM using HP D300 digital dispenser. 24 hours after compound treatment, cell culture media was removed by flicking the plate and tapping the plate against clean paper towel. Immediately 30 μL 1× lysis buffer was supplemented from the kit and the plate was incubated at room temperature on shaker for 30 min. After homogenization by pipetting up and down, 8 μL cell lysate from 96-well cell culture plate was transferred to 384-well small volume white detection plate. 2 μL premixed detection solution was added and the plate was covered with sealer. To prepare the detection solution, d2 conjugated-CDK2 antibody and Eu-cryptate conjugated CDK2 antibody were diluted into detection buffer following manufacturer's instruction. Detection plates were incubated overnight at room temperature and read on ClarioStar (BMG Labtech) in TR-FRET mode (665 nM and 620 nM). The TR-FRET ratio (665 nM/620 nM) was plotted against the compound concentration and normalized to DMSO controls. Half maximal degradation concentration (DC50) values were calculated with a four-parameter logistic fit using GraphPad Prism (version 8; La Jolla, CA). FIG. 1 provides a dose-response curve of Compound 1 in Compound Table I in cellular CDK2 HTRF assay. IC50 in FIG. 1 is the same as DC50. Compounds 1, 13, 16, 22, 23, 28, 34, 35, 36, 37, 38, 39, 42, 48, 50, 51, 53, 54, 55, 56, 57, 58, 59, 60, 61, 62, 63, 65, 66, 68, 69, 70 were tested and max degradation of CDK2 observed was from about 35% to about 90%.

[2] = target: T1, CDK2; assay: NanoBRET CDK2 engagement assay; parameters: expressed in transfected cells; settings: OVCAR3 cells with stable CDK2-Luciferase vector, 24 hours treatment
Summary of the method: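 OVCAR3 cells stably expressing CDK2-luciferase, in Opti-MEM with 1% FBS, treated 24 h at 37° C with compound from 3 μM in ½-log steps to 0.3 nM; NanoBRET tracer present for final 2 h. Donor/acceptor emission read; engagement normalized to DMSO as 100% signal, IC50 by curve fit.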

[3] = target: T1, CDK2; assay: Phospho-Rb HTRF measurement in OVCAR3 cells (inhibition of CDK2); parameters: High-Throughput Measurement of Cellular Endogenous CDK2; endogenous in cells; host or cells: OVCAR3; settings: pRB(S807/811) assay, 24 h compound treatment

Row | Compound | Dmax [1] | IC50 [2] | IC50 [3]
1 | O=C1CCC(N2Cc3cc(N4CCC5(CCN(Cc6cccc(S(=O)(=O)N7CCC(Nc8ncc9ccc(=O)n(C%10CCCC%10)c9n8)CC7)c6)CC5)CC4)ccc3C2=O)C(=O)N1 (stereo not drawn) [Compound 59, 3-(5-(9-(3-((4-((8-cyclopentyl-7-oxo-7,8-dihydro-pyrido[2,3-d]pyrimidin-2-yl)amino)piperidin-1-yl)sulfonyl)benzyl)-3,9-diazaspiro[5.5]undecan-3-yl)-1-oxoisoindolin-2-yl)piperidine-2,6-dione] | 35 to 90% | 180 nM | 48.2 nM
2 | O=C1CCC(N2Cc3cc(N4CC5(CN(Cc6cccc(S(=O)(=O)N7CCC(Nc8ncc9ccc(=O)n(C%10CC%11CC%11C%10)c9n8)CC7)c6)C5)C4)ccc3C2=O)C(=O)N1 (stereo not drawn) [Compound 61, 3-(5-(6-(3-((4-((8-(bicyclo[3.1.0]hexan-3-yl)-7-oxo-7,8-dihydropyrido[2,3-d]pyrimidin-2-yl)amino)piperidin-1-yl)sulfonyl)benzyl)-2,6-diazaspiro[3.3]heptan-2-yl)-1-oxoisoindolin-2-yl)piperidine-2,6-dione] | 35 to 90% | 327 nM | 70.7 nM
3 | O=C1CCC(N2Cc3cc(N4CC5(CN(Cc6cccc(S(=O)(=O)N7CCC(Nc8ncc9ccc(=O)n(C%10%11CC(C%10)C%11)c9n8)CC7)c6)C5)C4)ccc3C2=O)C(=O)N1 (stereo not drawn) [Compound 62, 3-(5-(6-(3-((4-((8-(bicyclo[1.1.1]pentan-1-yl)-7-oxo-7,8-dihydropyrido[2,3-d]pyrimidin-2-yl)-amino)piperidin-1-yl)sulfonyl)benzyl)-2,6-diazaspiro[3.3]heptan-2-yl)-1-oxoisoindolin-2-yl)-piperidine-2,6-dione] | 35 to 90% | 284 nM | 21.8 nM
4 | O=C1CCC(N2C(=O)c3cc(F)c(N4CCN(Cc5cccc(S(=O)(=O)N6CC[C@H](Nc7ncc8ccc(=O)n(C9CCCC9)c8n7)[C@H](F)C6)c5)CC4)cc3C2=O)C(=O)N1 (stereo partly drawn) [Compound 63, 5-(4-(3-(((3R,4S)-4-((8-cyclopentyl-7-oxo-7,8-dihydropyrido[2,3-d]pyrimidin-2-yl)amino)-3-fluoropiperidin-1-yl)sulfonyl)benzyl)piperazin-1-yl)-2-(2,6-dioxopiperidin-3-yl)-6-fluoroiso-indoline-1,3-dione] | 35 to 90% | 265 nM | 180 nM
5 | O=C1CCC(N2Cc3cc(N4CC(N5CCN(c6cccc(S(=O)(=O)N7CCC(Nc8ncc9ccc(=O)n(C%10CCCC%10)c9n8)CC7)c6)CC5)C4)ccc3C2=O)C(=O)N1 (stereo not drawn) [Compound 69, 3-(5-(3-(4-(3-((4-((8-cyclopentyl-7-oxo-7,8-dihydropyrido[2,3-d]pyrimidin-2-yl)amino)-piperidin-1-yl)sulfonyl)phenyl)piperazin-1-yl)azetidin-1-yl)-1-oxoisoindolin-2-yl)piperidine-2,6-dione] | 35 to 90% | 149 nM | 31.8 nM
6 | O=C1CCC(N2Cc3cc(N4CCN(C5CN(c6cccc(S(=O)(=O)N7CCC(Nc8ncc9ccc(=O)n(C%10CCCC%10)c9n8)CC7)c6)C5)CC4)ccc3C2=O)C(=O)N1 (stereo not drawn) [Compound 70, 3-(5-(4-(1-(3-((4-((8-cyclopentyl-7-oxo-7,8-dihydropyrido[2,3-d]pyrimidin-2-yl)amino)-piperidin-1-yl)sulfonyl)phenyl)-azetidin-3-yl)piperazin-1-yl)-1-oxoisoindolin-2-yl)piperidine-2,6-dione] | 35 to 90% | 40.2 nM | 25.8 nM

Results, then the compound that gave them:

Row | Dmax [1] | IC50 [2] | IC50 [3] | Compound
7 | 35 to 90% | 169 nM | 49.6 nM | O=C1CCC(N2Cc3cc(N4CCC5(CC4)CN(Cc4cccc(S(=O)(=O)N6CCC(Nc7ncc8ccc(=O)n(C9CCCC9)c8n7)CC6)c4)C5)ccc3C2=O)C(=O)N1 (stereo not drawn) [Compound 57, 3-(5-(2-(3-((4-((8-cyclopentyl-7-oxo-7,8-dihydro-pyrido[2,3-d]pyrimidin-2-yl)amino)piperidin-1-yl)sulfonyl)benzyl)-2,7-diazaspiro[3.5]nonan-7-yl)-1-oxoisoindolin-2-yl)piperidine-2,6-dione]
8 | 35 to 90% | 291 nM | 155 nM | O=C1CCC(N2Cc3cc(N4CC5(CCN(Cc6cccc(S(=O)(=O)N7CCC(Nc8ncc9ccc(=O)n(C%10CCCC%10)c9n8)CC7)c6)CC5)C4)ccc3C2=O)C(=O)N1 (stereo not drawn) [Compound 58, 3-(5-(7-(3-((4-((8-cyclopentyl-7-oxo-7,8-dihydropyrido[2,3-d]pyrimidin-2-yl)amino)-piperidin-1-yl)sulfonyl)benzyl)-2,7-diazaspiro-[3.5]nonan-2-yl)-1-oxoisoindolin-2-yl)piperidine-2,6-dione]
9 | 35 to 90% | 64.5 nM | 30 nM | O=C1CCC(N2Cc3cc(N4CC5(CN(Cc6cccc(S(=O)(=O)N7CCC(Nc8ncc9ccc(=O)n(C%10CCCC%10)c9n8)CC7)c6)C5)C4)ccc3C2=O)C(=O)N1 (stereo not drawn) [Compound 60, 3-(5-(6-(3-((4-((8-cyclopentyl-7-oxo-7,8-dihydro-pyrido[2,3-d]pyrimidin-2-yl)amino)piperidin-1-yl)sulfonyl)benzyl)-2,6-diazaspiro[3.3]heptan-2-yl)-1-oxoisoindolin-2-yl)piperidine-2,6-dione]
10 | 35 to 90% | 1750 nM | 6440 nM | O=C1CCC(N2C(=O)c3cc(F)c(N4CCN(Cc5cccc(S(=O)(=O)N6CC[C@H](Nc7ncc8ccc(=O)n(C9CCCC9)c8n7)[C@@H](F)C6)c5)CC4)cc3C2=O)C(=O)N1 (stereo partly drawn) [Compound 65, 5-(4-(3-(((3S,4S)-4-((8-cyclopentyl-7-oxo-7,8-dihydropyrido[2,3-d]pyrimidin-2-yl)amino)-3-fluoropiperidin-1-yl)sulfonyl)benzyl)piperazin-1-yl)-2-(2,6-dioxopiperidin-3-yl)-6-fluoro-isoindoline-1,3-dione]
11 | 35 to 90% | 46 nM | 107 nM | O=C1CCC(N2Cc3cc(CN4CCC(Oc5cccc(S(=O)(=O)N6CCC(Nc7ncc8ccc(=O)n(C9CCCC9)c8n7)CC6)c5)CC4)ccc3C2=O)C(=O)N1 (stereo not drawn) [Compound 66, 3-(5-((4-(3-((4-((8-cyclopentyl-7-oxo-7,8-dihydropyrido[2,3-d]pyrimidin-2-yl)amino)-piperidin-1-yl)sulfonyl)phenoxy)-piperidin-1-yl)-methyl)-1-oxoisoindolin-2-yl)piperidine-2,6-dione]
12 | 35 to 90% | 197 nM | 29.4 nM | O=C1CCC(N2Cc3cc(CNCCOc4cccc(S(=O)(=O)N5CCC(Nc6ncc7ccc(=O)n(C8CCCC8)c7n6)CC5)c4)ccc3C2=O)C(=O)N1 (stereo not drawn) [Compound 68, 3-(5-(((2-(3-((4-((8-cyclopentyl-7-oxo-7,8-dihydropyrido[2,3-d]pyrimidin-2-yl)amino)-piperidin-1-yl)sulfonyl)phenoxy)ethyl)amino)-methyl)-1-oxoisoindolin-2-yl)piperidine-2,6-dione]
13 | 35 to 90% | 403 nM | 440 nM | O=C1CCC(N2C(=O)c3cccc(NCCOCCOCCOCCOCCNS(=O)(=O)N4CCC(Nc5ncc6ccc(=O)n(C7CCCC7)c6n5)CC4)c3C2=O)C(=O)N1 (stereo not drawn) [compound 1, 4-((8-cyclopentyl-7-oxo-7,8-dihydro-pyrido[2,3-d]pyrimidin-2-yl)amino)-N-(14-((2-(2,6-dioxopiperidin-3-yl)-1,3-dioxoisoindolin-4-yl)amino)-3,6,9,12-tetraoxatetradecyl)piperidine-1-sulfonamide]
